In patent publication US10543193B2, “Processes useful for the preparation of 1-[3-(4-bromo-2-methyl-2H-pyrazol-3-yl)-4-methoxy-phenyl]-3-(2,4-difluoro-phenyl)-urea and crystalline forms related thereto” (ARENA PHARMACEUTICALS, INC., priority 2008, dated 2020):
“Also recorded” adds a separate entry of the source.

What was measured:
[1] = system: normal volunteers; test: Afternoon nap model of insomnia in normal volunteers; assay type: in vivo, humans
Source text: Sleep onset latency was not decreased by APD125. In the afternoon nap model, APD125 decreased microarousals, the number of sleep stage shifts and number of awakenings after sleep onset.

[2] = system: Healthy Adults; test: Phase 1 trials: waking EEG; assay type: in vivo, humans
[3] = system: insomnia patients; test: Phase 2 trial: sleep maintenance; assay type: in vivo, humans
Source text: The data from the APD125 Phase 2 study are consistent with Phase 1 data and support further development of APD125 for the treatment of insomnia patients who have difficulty maintaining sleep.

[4] = Methyl cellulose optimization: Form I to Form II conversion in water pastes (PXRD); assay type: physicochemical
Procedure: In a small scintillation vial, 152.13 mg of micronized APD125 Form I, was spiked with sufficient deionized water to make a paste; the weight of the water added, 844.60 mg, was recorded, and the resulting mixture was stirred using a spatula to obtain a paste. The resulting sample, post-collection of an initial PXRD pattern, was capped, wrapped in tinfoil and stored at 40° C. until the next day, when a second PXRD pattern was obtained.
Using another small scintillation vial, 2.1183 g of micronized APD125 Form I, was mixed with 3.3619 g of a 0.5% w/v methyl cellulose to obtain a paste, which was immediately sampled for PXRD analysis to verify starting APD125 solid-state form, post-methyl cellulose addition. The remaining sample in the scintillation vial was split into two portions, placed in capped, parafilm-wrapped scintillation vials, which were then wrapped in tinfoil and stored at 40° C. and room temperature, respectively. PXRD patterns were collected at initial (t=0), 2-day and 16-day time points for each sample.
APD125 micronized Form I/PVP (1:8) blend, weighing 3.0081 g and containing 0.5% w/w methyl cellulose, was mixed with 3.71277 g of water to form a paste. After sampling the paste for an initial PXRD pattern, the remaining paste was split into two portions, placed in capped, parafilm-wrapped scintillation vials, which were then wrapped in tinfoil and stored at 40° C. and room temperature, respectively. PXRD patterns were collected at initial (t=0), 1-day, 7-day and 21-day time points.
For each blend, materials were dispensed (minus magnesium stearate) into a glass vial and blended for about 5 minutes. Magnesium stearate was added and the mixture was blended an additional 2 minutes. The final blend was compacted into standard round concave tablets ( 5/16″ diameter) with a total tablet weight of 200 mg and hardness of 10 kp using a Carver press. For each batch of tablets, several were crushed using a mortar and pestle to obtain a fine powder, from which a small sample was taken for PXRD analysis to confirm the initial APD125 polymorphic form. The remaining powder was weighed into a Qorpak® bottle, and ca. 50% w/w deionized water was added. The resulting mixture was stirred using a micro-spatula to wet the powder and form a paste. A Teflon® lid was screwed on tightly, and the prepared samples were stored in a 40° C. oven.
(§1) PXRD measurements were obtained using a Philips (PANalytical) X'Pert PRO theta/theta diffractometer (EQ 0233) equipped with an X'Celerator RTMS detector and utilizing copper Kα radiation, operating at 45 kV and 40 mA. The instrument radius was 239.5 mm, the mask filter was 20 mm, the soller slit was 0.04 radians, and a nickel filter and sample spinning were used during data acquisition. The application and instrument control software used were X'Pert Data Collector®, version 2.0c and XPERT-PRO®, version 1.6, respectively. The API-based paste samples were scanned from 5° to 40°2θ in continuous mode, using a step size of 0.0167°2θ and a counting time of 40.005 seconds. The tablet granulation samples were scanned from 2° to 15°2θ in continuous mode, using a step size of 0.0167°2θ and a counting time of 1063.625 s.

[5] = Effect of milling and compression upon APD125 Form I (PXRD); assay type: physicochemical
Procedure: Micronized APD125 Form I, was ground using a mortar and pestle, with samples withdrawn at 1-min, 5-min and 10-min time points for PXRD analyses to evaluate the impact of grinding upon the solid-state form of APD125 Form I. PXRD patterns were obtained pre- and post-milling. Additionally, micronized APD125 Form I, was compressed at 2 kp, 5 kp and 10 kp for 1 min per sample using a Carver press. The samples were then removed from the Carver press and lightly broken up using a mortar and pestle, prior to PXRD analysis to evaluate the impact of compression upon the solid-state form of APD125 Form I. PXRD patterns were obtained pre- and post-compression.
as §1, with “The” for “The API-based paste”, “0.0167°2θ.” for “0.0167°2θ and a counting time of 40.005 seconds. The tablet granulation samples were scanned from 2° to 15°2θ in continuous mode, using a step size of 0.0167°2θ and a counting time of 1063.625 s.”

Row | conversion to Form II (PXRD) ([4]; aqueous 0.5% w/w methyl cellulose, 40° C., after 16 days) | PXRD pattern (FIG. 8 legend) ([4]; aqueous 0.5% w/w methyl cellulose, room temperature and 40° C., after 16 days) | time to conversion to Form II (PXRD) ([4]; paste in water alone at 40° C.) [h] | PXRD pattern (FIG. 9 legend) ([4]; paste in water alone at room temperature and 40° C. after 24 h) | conversion to Form II (PXRD) ([4]; suspended in aqueous 0.5% w/w methyl cellulose, room temperature, 21 days) | Structure (SMILES) | Sleep onset latency [1] | microarousals, number of sleep stage shifts and number of awakenings after sleep onset [1] | slow wave sleep and associated parameters ([1]; primarily during the early part of sleep) | dose with maximal effects on waking EEG [2] [mg] | effects on waking EEG [2] | time of peak effects on waking EEG after dosing [2] [h] | next day cognitive effects [3] | measurements of sleep maintenance ([3]; compared to placebo) | PXRD pattern after compression ([5]; compressed at 2 kp, 5 kp and 10 kp vs uncompressed) | PXRD pattern after grinding ([5]; mortar and pestle, 1 minute, 5 minutes and 10 minutes, listed as micronized APD125 Form I)
1 |  |  |  |  |  | COc1ccc(NC(=O)Nc2ccc(F)cc2F)cc1-c1c(Br)cnn1C [Compound I, 1-[3-(4-bromo-2-methyl-2H-pyrazol-3-yl)-4-methoxy-phenyl]-3-(2,4-difluoro-phenyl)-urea] | not decreased | decreased | increased slow wave sleep and associated parameters in a dose-dependent manner | 40 to 80 | vigilance-lowering effects | 2 to 4 | without any limiting next day cognitive effects | statistically significant improvements |  | 
2 | no evidence of conversion to Form II | substantially converted to Form II | ≤ 24 | substantially converted to Form II | did not convert to Form II | COc1ccc(NC(=O)Nc2ccc(F)cc2F)cc1-c1c(Br)cnn1C [APD125 Form I, 1-[3-(4-bromo-2-methyl-2H-pyrazol-3-yl)-4-methoxy-phenyl]-3-(2,4-difluoro-phenyl)-urea] |  |  |  |  |  |  |  |  | consistent with APD125 Form I; also recorded: all substantially comprise Form I | No significant changes in the PXRD patterns; also recorded: all substantially comprise Form I
